From patent US10537104B2, “Insecticide mixtures comprising loline alkaloids” (SYNGENTA PARTICIPATIONS AG, priority 2016, dated 2020)

Experiments:
Myzus persicae = experiment: Tests against Myzus persicae: sprayed sunflower leaf discs, mortality; type: in vivo; conditions: 6 days after infestation
Excerpt: (§1) A synergistic effect exists whenever the action of an active ingredient combination is greater than the sum of the actions of the individual components. The action to be expected E for a given active ingredient combination obeys the so-called COLBY formula and can be calculated as follows (COLBY, S. R. “Calculating synergistic and antagonistic responses of herbicide combination”. Weeds, Vol. 15, pages 20-22 1967):
(§2) According to Colby, the expected (additive) action of active ingredients A+B using p+q ppm of active ingredient is
(§3) If the action actually observed O is greater than the expected action E, then the action of the combination is super-additive, i.e. there is a synergistic effect. In mathematical terms, synergism corresponds to a positive value for the difference of (O-E). In the case of purely complementary addition of activities (expected activity), said difference (O-E) is zero. A negative value of said difference (O-E) signals a loss of activity compared to the expected activity.
Component (A1) is a mixture of NAL, NFL and NANL in a weight ratio of about approximately 1:4:2. Stock solutions of thiamethoxam and flonicamid were prepared respectively by dissolving the technical active ingredient in DMSO. The aqueous test solutions were prepared by mixing together the appropriate stock solutions to the desired concentrations.
Tests Against Myzus persicae
Sunflower leaf discs were placed on agar in a 24-well microtiter plate and sprayed with aqueous test solutions prepared from DMSO stock solutions. After drying, the leaf discs were infested with an aphid population of mixed ages. The samples were assessed for mortality 6 days after infestation.

Thrips tabaci = experiment: Tests against Thrips tabaci: sprayed sunflower leaf discs, mortality; type: in vivo; conditions: 6 days after infestation
Excerpt: as §1, §2, §3
Component (A1) is a mixture of NAL, NFL and NANL in a weight ratio of about approximately 1:4:2. […]
Sunflower leaf discs were placed on agar in 24-well microtiter plates and sprayed with aqueous test solutions prepared from DMSO stock solutions. […] The samples were assessed for mortality 6 days after infestation.

Compound	% Mortality Measured (Myzus persicae; flonicamid 3.125 ppm alone)	% Mortality Measured (Myzus persicae; flonicamid 6.25 ppm alone)	% Mortality Measured (Myzus persicae; flonicamid 12.5 ppm alone)	% Mortality Measured (Thrips tabaci; flonicamid 100 ppm alone)	% Mortality Measured (Thrips tabaci; flonicamid 200 ppm alone)	mortality at 0.4 ppm (Myzus persicae; Myzus persicae, foliar, 144 h, thiamethoxam 0.4 ppm alone, read-out: % Mortality Measured)	mortality at 0.8 ppm (Myzus persicae; Myzus persicae, foliar, 144 h, thiamethoxam 0.8 ppm alone, read-out: % Mortality Measured)	mortality at 1.6 ppm (Myzus persicae; Myzus persicae, foliar, 144 h, thiamethoxam 1.6 ppm alone, read-out: % Mortality Measured)
N#CCNC(=O)c1cnccc1C(F)(F)F [Flonicamid, flonicamid]	0%	65%	90%	0%	0%	–	–	–
CN1COCN(Cc2cnc(Cl)s2)/C1=N\[N+](=O)[O-] [Thiamethoxam, thiamethoxam]	–	–	–	–	–	0%	0%	45%
